From ChEMBL document CHEMBL1131160, “5-Substituted pyrimidines with a 1,5-anhydro-2, 3-dideoxy-D-arabino-hexitol moiety at N-1: synthesis, antiviral activity, conformational analysis, and interaction with viral thymidine kinase” (1998)
Converted amounts (≈) assume the structure as drawn.

What was measured:
E6SM [1] = test: Compound was evaluated for the minimum inhibition concentration required to reduce virus-induced cytopathogenicity by 50%, determined against HSV-1 (TK-B2006) virus; assay type: functional; conditions: Homo sapiens
E6SM [2] = test: Compound was evaluated for the minimum inhibition concentration required to reduce virus-induced cytopathogenicity by 50%, determined against HSV-2 virus as means of G, 196, and Lyons strains; assay type: functional; conditions: Homo sapiens
E6SM [3] = test: Compound was evaluated for the minimum inhibition concentration required to reduce virus-induced cytopathogenicity by 50%, determined against KOS,F,McIntyre strains of HSV-1 virus.; assay type: functional; conditions: Homo sapiens
[4] = tested on: Human cytomegalovirus (AD-169); test: Compound was evaluated for the minimum inhibition concentration required to reduce virus-induced cytopathogenicity by 50%, determined against Cytomegalovirus (AD-169) in HEL cells.
E6SM [5] = test: Compound was evaluated for the minimum cytotoxic concentration required to cause a microscopically detectable alteration of normal cell morphology.; assay type: functional; conditions: Homo sapiens

Structure (SMILES) | MIC (E6SM [1]) | MIC (E6SM [2]) | MIC (E6SM [3]) | MIC [4] | MCC (E6SM [5])
C#Cc1cn(C2COC(CO)C(O)C2)c(=O)[nH]c1=O (configuration not stated) | > 400 µg/mL | > 400 µg/mL | 48 µg/mL (≈ 180 µM) | > 50 µg/mL | 
Nc1nc2c(ncn2COCCO)c(=O)[nH]1 [ACYCLOVIR] | 1.92 µg/mL (≈ 8.53 µM) | 0.38 µg/mL (≈ 1.69 µM) | 0.075 µg/mL (≈ 0.333 µM) |  | > 200 µg/mL
O=c1[nH]c(=O)n(C2COC(CO)C(O)C2)cc1Cl (configuration not stated) | > 400 µg/mL | > 400 µg/mL | > 400 µg/mL | > 50 µg/mL | > 400 µg/mL
O=c1[nH]c(=O)n(C2COC(CO)C(O)C2)cc1-c1cccs1 (configuration not stated) | 240 µg/mL (≈ 740 µM) | 240 µg/mL (≈ 740 µM) | 240 µg/mL (≈ 740 µM) | > 50 µg/mL | > 400 µg/mL
O=c1[nH]c(=O)n([C@H]2C[C@H](O)[C@@H](CO)O2)cc1/C=C/Br [BRIVUDINE] | 3.2 µg/mL (≈ 9.61 µM) | > 80 µg/mL | 0.015 µg/mL (≈ 0.045 µM) |  | > 200 µg/mL
O=c1[nH]c(=O)n(C2COC(CO)C(O)C2)cc1I (configuration not stated) | > 400 µg/mL | 0.5 µg/mL (≈ 1.36 µM) | 0.025 µg/mL (≈ 0.0679 µM) | > 40 µg/mL | > 400 µg/mL
O=c1[nH]c(=O)n(C2COC(CO)C(O)C2)cc1C(F)(F)F (configuration not stated) | 9.8 µg/mL (≈ 31.6 µM) | 0.38 µg/mL (≈ 1.22 µM) | 0.025 µg/mL (≈ 0.0806 µM) | > 50 µg/mL | > 400 µg/mL
C=Cc1cn(C2COC(CO)C(O)C2)c(=O)[nH]c1=O (configuration not stated) | 240 µg/mL (≈ 895 µM) | 9.6 µg/mL (≈ 35.8 µM) | 0.075 µg/mL (≈ 0.28 µM) | > 50 µg/mL | > 400 µg/mL
CC#Cc1cn(C2COC(CO)C(O)C2)c(=O)[nH]c1=O (configuration not stated) | 48 µg/mL (≈ 171 µM) | 16 µg/mL (≈ 57.1 µM) | 0.38 µg/mL (≈ 1.36 µM) | > 50 µg/mL | > 400 µg/mL
